Reference: patent US9775844B2, “Heterocyclic compounds and uses thereof” (Infinity Pharmaceuticals, Inc., priority 2014, dated 2017)

Experiments:
[1] = Pharmacokinetics in monkey, oral; format: in vivo; details: 5 mg/kg oral
From the text: (§1) Compound BB's oral exposure is high in rat, dog and monkey. Good oral bioavailability and low clearance in rodent and non-rodent animal species results in high oral exposure.

4T1 breast cancer = assay: Orthotopic 4T1 breast cancer model; format: in vivo; details: Compound BB and/or PDL-1 inhibition
LLC tumor brei = LLC tumor brei model with or without cyclophosphamide (tumor growth, FACS); format: in vivo, mouse
Protocol: In this experiment, treatment began when tumors reached approx. 150 mm^3—around day 12. Caliper and xenogen images were monitored. Treatment groups n=13-15/group. […] Samples for FACs analysis were collected on day 23 post implant. Using FACS, cells were assayed for the level of CD11b and Gr-1.

MC38 tumor cells = assay: MC38 colon cancer model; format: in vivo, mouse
Protocol: In this model, a syngeneic colon cancer cell line is run subcutaneously. The experimental setup was as follows.
The cell injection volume was 0.05 ml per mouse. When tumors reached an average size of 80-100 mm^3, a pair match was made and treatment began. The tumor was measured by caliper biweekly.
The dosing volume was 5 mL/kg.
For all animals, blood was collected by terminal cardiac puncture under isoflurane anesthesia. The blood was processed for plasma. In addition, tumor samples were collected.
At study end, tumors were isolated, fixed in 10% neutral buffered formalin and embedded in paraffin for histologic analysis. […] T-cells within the tumor sections were identified utilizing a CD3-specific antibody via automated immunohistochemistry equipment (Ventana). Once stained, slides were digitalized via Aperio slide scanning equipment. Next, stained tumor sections were quantified via Definians software to assess the percentage of CD3 positive cells within each tumor.

Cytochrome P450 isoforms = assay: Cytochrome P450 inhibition; format: in vitro ADME
From the text: (§2) These properties indicate the compound's suitability for in vivo administration.

[2] = tested on: Cytochrome P450 isoforms (all main CYPs); assay: Cytochrome P450 inhibition; format: in vitro ADME; details: reversible inhibition, all Cyps; read-out: Rev Cyp Inhibition IC50
From the text: as §2

Plasma protein binding = format: in vitro ADME; details: all species, read-out: PPB % free @ 1 uM
human T cells = assay: Concanavalin A-induced model for activation of human T cells (IFN-γ); format: cell-based; details: at isoform selective concentrations
CT26 colon cancer = CT26 colon cancer model; format: in vivo, mouse
Lewis Lung Carcinoma = Lewis Lung Carcinoma model; format: in vivo, mice
[3] = tested on: CXCL12 stimulated pAKT in T cells and monocytes; assay: Ex vivo whole blood CXCL12 stimulation of phospho-AKT, LLC-bearing mice; format: in vivo, mouse; details: 12 days QD PO, 2 h post dose
Protocol: C57 BL/6 Albino mice were implanted with 1×10^6 cells in a SC injection in the hind flank. The cell implant material was generated from brei that was passaged from mouse to mouse. Treatment started when tumors were between 160-180 mm^3 Mice were dosed for 12 days, QD, PO with vehicle, 15, 7.5 or 3 mg/kg. On day 12 mice were dosed and terminal blood was collected 2 h post dose by cardiac stick collection. Blood was placed in EDTA K2 collection tube and stored at room temp for PD analysis.
Blood from each animal was aliquotted into 2 plates and warmed to 37° C. degrees. PBS was added to one plate as an unstimulated control. Murine CXCL12/SDF-1 was added to the second plate to a final concentration of 800 ng/mL and plate was returned to the 37° C. degree block. After 2 minutes of incubation, blood was lysed and fixed using paraformaldehyde. Samples were washed and frozen until flow cytometric analysis. T cells were gated using an antibody to CD3 and monocytes were gated as LY6G^− LY6C^high. Intracellular pAKT […] was measured and percent positive was used for graphing.

[4] = Pharmacokinetics in rat, oral; format: in vivo
From the text: as §1

[5] = tested on: M2 macrophage markers VEGF and ARG-1; assay: M2 macrophage marker expression with or without PDL-1 antibody (FIG. 42)
[6] = tested on: CD11b+ myeloid cells in 4T1 tumors; assay: Immunohistochemistry of CD11b / CD68 myeloid cells in 4T1 tumors; format: in vivo, mouse; details: vs vehicle/controls
Protocol: Immunohistochemistry was performed to determine the distribution of immune cells within the tumor. In particular, CD11b myeloid cells were examined, as were regulatory vs. effector T cells (CD3, CD4, CD8, FoxP3). Briefly, IHC for CD11b or CD68+ was performed as follows. CD11b antibodies were available from Abcam, clone I-70, Catalong # ab 8878. CD68 antibodies were available from Abcam, clone FA-11, catalog # ab 53444. Tissues were fixed in cold methanol, air-dried, and then stained using a Res IHC Omni-UltraMap HRP XT protocol.
Without being bound by a particular theory, the decrease in the pro-tumorigenic tumor associated myeloid cells can result in activation of cytotoxic T-cells and anti-tumor immunity. […] When the images were quantified as CD11b+ cells per total viable cells (FIG. 37E), a Student t-Test p-value of 0.0355 was obtained when comparing the Compound BB-treated cells to controls. When the images were quantified as CD11b+ stained area per total visible area (FIG. 37F), a Student t-Test p-value of 0.0441 was obtained when comparing the Compound BB-treated cells to controls. […] When the images were quantified as CD11b+ cells per total viable cells (FIG. 37G), a Student t-Test p-value of 0.0864 (d16) or 0.3967 (d22) was obtained when comparing the Compound BB-treated cells to controls. […]

[7] = tested on: M1 macrophage differentiation; assay: M1 macrophage differentiation; format: cell-based
Protocol: A similar experiment was performed on M1 differentiation.

[8] = Dose-exposure proportionality; details: in vivo
[9] = Target organ toxicity (TOT) study, 10 days oral; format: in vivo
Protocol: A target organ toxicity (TOT) study was performed in rats. […] This study assessed clinical observations/mortality, body weights, clinical pathology, toxicokinetics, and histopathology of select tissues. The tissues studied were: Adrenal gland, Bone marrow (femur), Brain, Small Intestine (including GALT), Heart, Large Intestine, Kidney, Stomach, Liver, Pancreas, Spleen, Testis, and Thymus. Doses were selected based on repeat-dose tolerability study, PK and plasma protein binding, and cellular IC50s for PI3K isoforms.

C[C@H](NC(=O)c1c(N)nn2cccnc12)c1cc2cccc(C#Cc3cnn(C)c3)c2c(=O)n1-c1ccccc1 [Compound BB]
oral exposure (plasma concentrations within 24 hours) [1]: high | total luciferase flux (4T1 breast cancer): reduced total luciferase flux | tumor growth (4T1 breast cancer): reduced tumor growth | tumor growth, LLC tumor brei model (LLC tumor brei; Compound BB 15 mg/kg QD PO, cyclophosphamide 50 mg/kg EOD IP): reduced tumor growth | CD206 population in LLC tumors (FACS) (LLC tumor brei; Compound BB PO QD alone or with cyclophosphamide): decrease in the CD206 population | intratumoral CD3+ T cells (MC38 tumor cells; MC38 tumors vs vehicle, IHC): significantly more intratumoral CD3+T cells | tumor growth, MC38 colon cancer model (MC38 tumor cells; monotherapy, FIG. 29A): significantly inhibited tumor growth | CYP inhibition (Cytochrome P450 isoforms): does not substantially inhibit CYP | reversible inhibition of main Cytochrome P450 isoforms (Cytochrome P450 isoforms): low potential for reversible inhibition | Time dep Cyp Inhibition @ 10 uM (Cytochrome P450 isoforms; time dependent, 10 uM): Neg | IC50 [2]: > 10 µM | fraction unbound at 1 uM (Plasma protein binding): 0.01 to 0.05 | effect on IFN-γ (human T cells): little to no effect | MDSC expansion after cyclophosphamide treatment (CT26 colon cancer; CT26 colon cancer model): decreased | monocytic iMCs (CT26 colon cancer; CT26 subcutaneous tumors): decreased | single agent activity (Lewis Lung Carcinoma): demonstrates single agent activity | ex vivo whole blood CXCL12 stimulation of phospho-AKT in T cells [3]: inhibits | ex vivo whole blood CXCL12 stimulation of phospho-AKT in monocytes [3]: inhibits | oral exposure (plasma concentrations within 24 hours) ([4]; rat, 7.5 mg/kg oral): high | dose-exposure proportionality (AUC 0-last) ([4]; rats, oral 10, 25, and 100 mg/kg): good dose-exposure proportionality | M2 macrophage marker ARG-1 [5]: reduced | M2 macrophage marker VEGF [5]: reduced | CD11b+ cells in 4T1 tumors (IHC) [6]: statistically significant reduction in CD11b+ cells | M1 macrophage differentiation [7]: did not have an observable effect | dose-exposure proportionality [8]: exhibits dose-exposure proportionality | decrease in body weights compared to vehicle ([9]; high dose animals (50 mg/kg/day)): 5-8% | histopathology, thymus ([9]; males at ≧7.5 mg/kg/day, females at 50 mg/kg/day): minimal/mild lymphoid depletion | histopathology, spleen (marginal zone and PALS) ([9]; primarily at doses ≧20 mg/kg/day): minimal/mild lymphoid depletion | clinical pathology ([9]; primarily in 20 and 50 mg/kg/day groups): minimal changes in neutrophils, lymphocytes, and fibrinogen | histopathology, gross changes ([9]; rats, oral, 10 days): no significant gross changes | tolerability ([9]; rats, oral, 10 days, 1 to 50 mg/kg/day): well-tolerated | mortality and clinical signs ([9]; rats, oral, 10 days, any dose level): No mortality or clinical signs
